Assay results published in ChEMBL document CHEMBL3045497, “An analogue of piperonyl butoxide facilitates the characterisation of metabolic resistance” (Pest Manag Sci, 2009).
Converted amounts (≈) assume the structure as drawn. The source made the active and inactive calls. The rule behind the calls is not given here.

Tests used:
[1] = Inhibition of B-type Bemisia tabaci (sweet potato whitefly) esterase using 31.25 uM of 1-naphthyl butyrate as substrate after 120 min
Bemisia tabaci [2] = assay: Non-competitive inhibition of B-type Bemisia tabaci (sweet potato whitefly) esterase using 1-naphthyl butyrate as substrate after 10 to 120 min
[3] = Inhibition of B-type Bemisia tabaci (sweet potato whitefly) esterase using 500 uM of 1-naphthyl butyrate as substrate after 120 min
[4] = Inhibition of B-type Bemisia tabaci (sweet potato whitefly) esterase using 500 uM of 1-naphthyl butyrate as substrate after 10 min
Bemisia tabaci [5] = assay: Inhibition of B-type Bemisia tabaci (sweet potato whitefly) oxidase-mediated O-deethylation using 18 uM of 7-ethoxycoumarin as substrate assessed as residual activity after 10 min relative to control
Bemisia tabaci [6] = assay: Inhibition of B-type Bemisia tabaci (sweet potato whitefly) oxidase-mediated O-deethylation using 285 uM of 7-ethoxycoumarin as substrate assessed as residual activity after 120 min relative to control
Bemisia tabaci [7] = assay: Inhibition of B-type Bemisia tabaci (sweet potato whitefly) oxidase-mediated O-deethylation using 285 uM of 7-ethoxycoumarin as substrate assessed as residual activity after 10 min relative to control
Bemisia tabaci [8] = assay: Reversible inhibition of B-type Bemisia tabaci (sweet potato whitefly) esterase using 1-naphthyl butyrate as substrate after 10 to 120 min
Bemisia tabaci [9] = assay: Resistant factor, ratio of LC50 for […] (sweet potato whitefly) in presence of EN 16/5-1; type: functional
Bemisia tabaci [10] = assay: Resistant factor, ratio of LC50 for […] (sweet potato whitefly) in presence of PBO; type: functional
Bemisia tabaci [11] = assay: Resistant factor, ratio of LC50 for drug-susceptible Bemisia tabaci SUD-S (sweet potato whitefly) to LC50 for drug-resistant Bemisia tabaci GUAMIX (sweet potato whitefly); type: functional
Bemisia tabaci [12] = assay: Insecticidal activity against drug-resistant Bemisia tabaci GUAMIX (sweet potato whitefly) in cotton plant leaf assessed as mortality after 48 hr in presence of EN 16/5-1 pretreated 5 hr before compound challenge; type: functional
Bemisia tabaci [13] = assay: Insecticidal activity against drug-resistant Bemisia tabaci GUAMIX (sweet potato whitefly) in cotton plant leaf assessed as mortality after 48 hr; type: functional
Bemisia tabaci [14] = assay: Insecticidal activity against drug-susceptible Bemisia tabaci SUD-S (sweet potato whitefly) in cotton plant leaf assessed as mortality after 48 hr; type: functional
Bemisia tabaci [15] = assay: Insecticidal activity against drug-susceptible Bemisia tabaci SUD-S (sweet potato whitefly) in cotton plant leaf assessed as mortality after 48 hr in presence of PBO pretreated 5 hr before compound challenge; type: functional
Bemisia tabaci [16] = assay: Insecticidal activity against drug-resistant Bemisia tabaci GUAMIX (sweet potato whitefly) in cotton plant leaf assessed as mortality after 48 hr in presence of PBO pretreated 5 hr before compound challenge; type: functional
Bemisia tabaci [17] = assay: Insecticidal activity against drug-susceptible Bemisia tabaci SUD-S (sweet potato whitefly) in cotton plant leaf assessed as mortality after 48 hr in presence of EN 16/5-1 pretreated 5 hr before compound challenge; type: functional

With CCCCOCCOCCOCc1cc2c(cc1CCC)CCO2 the IC50 [1] was 4.8 µM, the inhibition (Bemisia tabaci [2]) was “Active” and the IC50 [3] was 5.4 µM. It also gave an IC50 [4] of 6.5 µM, an Activity (Bemisia tabaci [5]) of 42% and an Activity (Bemisia tabaci [6]) of 82%. The Activity (Bemisia tabaci [7]) was 78% and the inhibition (Bemisia tabaci [8]) was “Active”.
With O=[N+]([O-])/N=C1\NCCN1Cc1ccc(Cl)nc1 [IMIDACLOPRID] the RatioLC50 (Bemisia tabaci [9]) was 900, the RatioLC50 (Bemisia tabaci [10]) was 65.5 and the RatioLC50 (Bemisia tabaci [11]) was >670. The LC50 (Bemisia tabaci [12]) was 847 µg/mL, the LC50 (Bemisia tabaci [13]) was > 1000 µg/mL and the LC50 (Bemisia tabaci [14]) was 1.49 µg/mL (≈ 5.83 µM). The LC50 (Bemisia tabaci [15]) was 0.49 µg/mL, the LC50 (Bemisia tabaci [16]) was 32.1 µg/mL and the LC50 (Bemisia tabaci [17]) was 0.94 µg/mL.
In the case of CCCCOCCOCCOCc1cc2c(cc1CCC)OCO2 [PIPERONYL BUTOXIDE], the IC50 [1] is reported as 5.4 µM, the inhibition (Bemisia tabaci [2]) is reported as “Active” and the IC50 [3] is reported as 5.1 µM. The IC50 [4] was 4.7 µM, the Activity (Bemisia tabaci [5]) was 16% and the Activity (Bemisia tabaci [6]) was 27%. For the same molecule, the Activity (Bemisia tabaci [7]) was 24% and the inhibition (Bemisia tabaci [8]) was “Active”.
